Measurements: patent US9751846B2, “Method for producing 1,4-benzoxazine compound” (MITSUBISHI TANABE PHARMA CORPORATION, priority 2012, dated 2017)
Entries after “also recorded” stand apart in the source; their conditions may differ.

Experiments:
[1] = hygroscopicity of the crystal form; format: physicochemical
[2] = stability of the crystal form (transition by heating, thermostability); format: physicochemical; conditions: for stability of the crystal: general statement
[3] = stability of the crystal in a formulation; format: physicochemical
mutagenicity (AMES test) = format: cell-based

Question: Which hygroscopicity [1] does the source give for `CC1(C)Oc2cc(NS(C)(=O)=O)ccc2N(c2ccc(F)cc2)C1=O` [Form A crystal, N-[4-(4-fluorophenyl)-2,2-dimethyl-3-oxo-3,4-dihydro-2H-1,4-benzoxazin-7-yl]methanesulfonamide] here?
Answer: low hygroscopicity; also recorded: non-hygroscopic

Question: What about the “stability of the crystal” value [2] of the same compound?
Answer: highly stable

Question: What about the “transition to amorphous state or other crystal form by heating” value ([2]; heating) of the same compound?
Answer: hardly makes a transition to other crystal form by heating; also recorded: does not transform to an amorphous state or other crystal form

Question: What about the “stability in a formulation” value [3] of the same compound?
Answer: high stability in a formulation; also recorded: highly stable in a formulation

Question: With `CC1(C)Oc2cc(N(S(C)(=O)=O)S(C)(=O)=O)ccc2N(c2ccc(F)cc2)C1=O` [compound [c], N-[4-(4-fluorophenyl)-2,2-dimethyl-3-oxo-3,4-dihydro-2H-1,4-benzoxazin-7-yl]-N-(methylsulfonyl)methanesulfonamide] as the compound, how does the mutagenicity (mutagenicity (AMES test); test not named at this place, synthetic intermediate of the new route) read?
Answer: lower mutagenicity

Question: With `CC1(C)Oc2cc(NS(C)(=O)=O)ccc2N(c2ccc(F)cc2)C1=O` [Form C crystal, N-[4-(4-fluorophenyl)-2,2-dimethyl-3-oxo-3,4-dihydro-2H-1,4-benzoxazin-7-yl]methanesulfonamide] as the compound, how does the “stability of the crystal” value [2] read?
Answer: highly stable

Question: Which “mutagenicity by the AMES test” value (mutagenicity (AMES test); synthetic intermediate of the Patent Literature 1 route) does the source give for `CC1(C)Oc2cc(N)ccc2N(c2ccc(F)cc2)C1=O` [intermediate (2), 7-amino-4-(4-fluorophenyl)-2,2-dimethyl-2H-1,4-benzoxazin-3(4H)-one] here?
Answer: strong mutagenicity

Question: With `CC1(C)Oc2cc(NS(C)(=O)=O)ccc2N(c2ccc(F)cc2)C1=O` [Form B crystal, N-[4-(4-fluorophenyl)-2,2-dimethyl-3-oxo-3,4-dihydro-2H-1,4-benzoxazin-7-yl]methanesulfonamide] as the compound, how does the hygroscopicity [1] read?
Answer: low hygroscopicity

Question: What about the thermostability ([2]; as compared to the Form D crystal of Patent Literature 1) of the same compound?
Answer: higher thermostability

Question: And the “stability of the crystal” value [2]?
Answer: highly stable
